In PMC4567410 (Virology, 2015):
Like-named read-outs stand apart in the source and are kept apart here.

Legend:
[1] = system: HIV-1NL4-3; assay: HIV-1NL4-3 replication in H9; assay type: cell-based; settings: H9 cells expressing A3G, 62.5 and 125 nM
[2] = system: HIV-1Ba-L; assay: HIV-1 Ba-L replication in PBMCs; assay type: cell-based; settings: Human immunodeficiency virus 1, PBMC, 168 h
[3] = system: SupT1 T cells; assay: Cytotoxicity in SupT1 T cells; settings: concentrations greater than 125 nM
[4] = system: H9 cells; assay: Cytotoxicity in H9 T cells; settings: concentrations greater than 125 nM
[5] = system: HIV-1NL4-3; assay: HIV-1NL4-3 replication in SupT1; assay type: cell-based; settings: SupT1 T cells lacking A3G, 62.5 and 125 nM
[6] = system: A3G; assay type: cell-based, human; settings: for effect on A3G protein levels: absence of redoxal treatment
[7] = system: HIV-1 89BZ167; assay: HIV-1 89BZ167 replication in PBMCs; assay type: cell-based; settings: HIV-1 isolate 89BZ167 in PBMCs, 7 days, RT assay
[8] = molecular target: Vif-CBFβ interaction (Human immunodeficiency virus type 1 group M subtype B, UniProt P12504); assay type: cell-based; settings: unpublished preliminary co-immunoprecipitation experiments
Vif-CBFβ interaction, sequence (P12504 whole entry): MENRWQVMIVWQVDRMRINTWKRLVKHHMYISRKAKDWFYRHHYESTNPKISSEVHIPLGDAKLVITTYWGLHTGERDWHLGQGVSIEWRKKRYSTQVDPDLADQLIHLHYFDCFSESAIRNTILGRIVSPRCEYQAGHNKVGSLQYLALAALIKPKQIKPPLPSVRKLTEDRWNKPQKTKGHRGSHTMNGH

[9] = molecular target: Vif-Cul5 interaction (Human immunodeficiency virus type 1 group M subtype B, UniProt P12504); assay: Co-immunoprecipitation of Vif and Cul5 from 293T cells; assay type: cell-based; settings: 1250 nM, 40 h
Vif-Cul5 interaction, sequence (P12504 whole entry): as above

[10] = system: Vif; assay: Vif protein stability in transfected 293T cells, CHX time course; assay type: cell-based, HIV-1; settings: 1250 nM 36 h, then CHX
[11] = system: A3G; settings: infected CEM cells, 1250 nM, 6 days post infection
[12] = system: VSV-G pseudotyped NL4-3GFPΔEnv viruses; assay type: cell-based, HIV-1
[13] = system: HIV-1NL4-3; assay: HIV-1NL4-3 spreading infection in CEM cells; assay type: cell-based; settings: CEM cells (high A3G); 312.5, 625, 1250 nM; 3, 6, 9 days
[14] = system: Vif; assay: Western blot of Vif in HIV-1 infected CEM cell lysates; settings: infected CEM cells, 1250 nM
[15] = system: HIV-1NL4-3; assay: HIV-1NL4-3 spreading infection in CEM-SS cells; assay type: cell-based; settings: CEM-SS cells (very low A3G); 312.5, 625, 1250 nM
[16] = system: VSV-G pseudotyped NL4-3GFPΔEnv viruses; assay type: cell-based, HIV-1; remark: listed apart in the source
[17] = system: HIV-1 91US001; assay: HIV-1 91US001 replication in PBMCs; assay type: cell-based; settings: HIV-1 isolate 91US001 in PBMCs, 7 days, RT assay

`COC(=O)c1ccc(O)c2nc3c(C=O)c(O)cc(O)c3nc12` [lomofungin] was tested, and the antiviral activity [1] was “strong antiviral activity”, the IC50 [2] was 70 nM and the cytotoxicity [3] was “significant cytotoxicity”. For the same compound, the cytotoxicity [4] was “significant cytotoxicity” and the antiviral activity [5] was “not in SupT1 T cells”.
In the case of `O=C(O)c1cc(=O)[nH]c(=O)[nH]1` [orotate], the “effect on A3G protein levels” value [6] is reported as “no significant effect”.
In the case of `COc1cc(-c2ccc(Nc3ccccc3C(=O)O)c(OC)c2)ccc1Nc1ccccc1C(=O)O` [redoxal], the IC50 [7] is reported as 590 nM, the A3G protein levels [6] is reported as “increased” and the “steady-state levels of A3G protein in CHX time course” value ([6]; 293T cells with A3G-3xHA and pNL4-3GFPΔEnv, 1250 nM 36 h, then CHX 4 h) is reported as “stabilized”. The “increase of A3G protein levels” value ([6]; virus producer 293T cells expressing HIV-1 Vif, 1250 nM) was “approximately 50%”, the “effect on Vif-CBFβ interaction” value [8] was “did not disrupt” and the “effect on Vif-Cul5 interaction” value [9] was “no effect”. For the same compound, the “effect on Vif protein stability” value [10] was “no significant effect”, the A3G protein levels [11] was “modest increase” and the decrease in infectivity [12] was “approximately 50%”. For the same compound, the “inhibition of viral replication” value [13] was “inhibited viral replication in a dose-dependent manner”, the Vif protein levels [14] was “reduced Vif protein levels” and the “inhibition of viral replication” value [15] was “not CEM-SS cells”. The virus production [16] was “inhibited virus production” and the IC50 [17] was 1740 nM.
In the case of `O=c1ccn([C@@H]2O[C@H](CO)[C@@H](O)[C@H]2O)c(=O)[nH]1` [uridine], the “effect on A3G protein levels” value [6] is reported as “no significant effect”.
